Data from patent publication US8906416B2, “Xanthenedione derivatives for the treatment of pigmentation and skin ageing disorders” (Pierre Fabre Dermo-Cosmetique, priority 2010, dated 2014).

Assays:
[1] = reference products of the interpretation scale; cited from earlier work
[2] = Antioxidant capacity by chemiluminescence (Photochem Analytik Jena); assay type: biochemical; settings: superoxide anion trapping
Protocol: This test is used to determine the antioxidant capacity of molecules. It is a method that generates free radicals by a photochemical signal. The intensity of the oxidation is 1000 times greater than those obtained under normal conditions.
The detection is performed by chemiluminescence. It enables the evaluation of hydrosoluble and liposoluble antioxidant molecules or extracts.
The results are expressed respectively in equivalent quantity of vitamin C or Trolox (6-hydroxy-2,5,7,8-tetramethylchroman-2-carboxylic acid). The sensitivity is of the order of the nanomole.
The antioxidant activity studied in this test represents the capacity to specifically trap the superoxide anions by chemiluminescence.
The quantified results are expressed in equivalent Trolox (standard), i.e. in “μg of product for 1 μg of Trolox”. This signifies that a quantity x of sample is required to obtain an activity equivalent to the activity detected for 1 μg of standard. It is an anti-oxidant power relative to a reference, which can be determined independently of the tested concentration.
The superoxide radical: O2^o^− is generated by a photochemical reaction: L+hv(UV)+O2→L*O2→L^o^++O2^o^− • L*: luminol in the excited state L^o+: luminol radical Detection of the Signal:
Part of the superoxide anions is quenched by anti-oxidants. The remaining free radicals are quantified by chemiluminescence. L^o^++O2^o^−→N2+[…]→AP^2−+hv(luminescence) AP*^2−: aminophthalate in the excited state

B16-F10 cells = assay: Melanin assay test in B16-F10 cells; assay type: cell-based, murine; settings: for IC50: Mus musculus, B16-F10, 0.1 μM α-MSH stimulated, 72 hours treatment, read-out: Results activity B16-F10 IC50 (50% melanin synthesis inhibition); for Results activity B16-F10, percentage of activity on melanin synthesis: negative value indicates an inhibition
Protocol: This involves a test of measuring the synthesis of melanin by colorimetric assay on a murine melanoma cell line: the B16-F10 line. This test enables the depigmenting power of active ingredients to be evaluated.
The B16-F10 cells are cultured in 96-well plates in DMEM medium, supplemented with FCS (foetal calf serum), and incubated 24 hours at 37° C., 5% CO2. The cells are then stimulated with 0.1 μM α-MSH (to stimulate the synthesis of melanin, the stimulation observed is around 150%) and treated 72 hours with the active ingredients to be tested. Each concentration of active ingredient is tested at least in triplicate. The total melanin followed by the intracellular melanin dissolved in the lysis buffer are then assayed by absorbance reading at 405 nm. The total proteins are assayed in the lysate and the results are expressed in mg melanin/mg proteins. The percentage of activity is calculated as follows:
[formula] A negative value indicates an inhibition, whereas a positive value indicates an induction of the synthesis of melanin. General Experimental Conditions: • Equipment: • CO2 cell incubator (Heraeus), Oven, Centrifuge (Heraeus), Laminar air flow fume hood, 96-well clear bottomed plates—Falcon, sterile cones—Treff Lab, Polylabo, Mithras LB940 (Berthold Technologies)-154/MIPA/003 Biological Equipment: • B16-F10 cell line between P10 and P20 (murine melanocytes) (ATCC, CRL-6475) • Reagents • DMEM without phenol red (GIBCOBRL, 31053-028), 200 mM Glutamax-I Supplement (GIBCOBRL, 35050-038), D-PBS (GIBCOBRL, 14190-094), Foetal calf serum (Invitrogen, 10270-098), Trypsine-EDTA (GIBCOBRL, 25300-054), NaOH (Sigma, S8045-500G), DMSO (Sigma, 471267-1L), Nle, Phe—Melanocyte Stimulating Hormone (Sigma, M-8764), Melanin (Sigma, M-0418), BCA-COPPER (SIGMA, B9643 AND C2284), BSA (SIGMA, P0914) B) Test for the Study of the Antioxidant Capacity by Chemiluminescence (Photochem Analytik Jena) Principle: […]

IC50 (B16-F10 cells) | SMILES | μg of sample for 1 μg of Trolox [2] | also measured
– | O=C(O)CCCC[C@@H]1CCSS1 (racemic) [Lipoic acid] | – | Activity (scale for interpreting the results) [1]: Nil; μg sample for 1 μg of Trolox (scale for interpreting the results) [1]: Negative
– | Cc1cc(C(C)(C)C)c(O)c(C(C)(C)C)c1 [BHT] | – | Activity (scale for interpreting the results) [1]: Good; μg sample for 1 μg of Trolox (scale for interpreting the results) [1]: 3.01 to 50 μg sample for 1 μg of Trolox
– | N[C@@H](CS)C(=O)O [Cysteine] | – | Activity (scale for interpreting the results) [1]: Medium; μg sample for 1 μg of Trolox (scale for interpreting the results) [1]: 50.1 to 1000 μg sample for 1 μg of Trolox
50 µM | COc1cc(C2C3=C(CC(C)(C)CC3=O)OC3=C2C(=O)CC(C)(C)C3)ccc1O [Example 1, 9-(4-hydroxy-3-methoxyphenyl)-3,3,6,6-tetramethyl-3,4,5,6,7,9-hexahydro-1H-xanthene-1,8(2H)-dione] | 2.1 μg of sample for 1 μg of Trolox | –
20 µM | CC1(C)CC(=O)C2=C(C1)OC1=C(C(=O)CC(C)(C)C1)C2c1ccc(O)c(O)c1 [Example 2, 9-(3,4-dihydroxyphenyl)-3,3,6,6-tetramethyl-3,4,5,6,7,9-hexahydro-1H-xanthene-1,8(2H)-dione] | 0.03 μg of sample for 1 μg of Trolox | –
45 µM | COc1cc(C2C3=C(CC(C)(C)CC3=O)OC3=C2C(=O)CC(C)(C)C3)cc(OC)c1O [Example 3, 9-(4-hydroxy-3,5-dimethoxyphenyl)-3,3,6,6-tetramethyl-3,4,5,6,7,9-hexahydro-1H-xanthene-1,8(2H)-dione] | 0.72 μg of sample for 1 μg of Trolox | –
7 µM | O=C1CC(c2ccccc2)CC2=C1C(c1ccc(O)c(O)c1)C1=C(CC(c3ccccc3)CC1=O)O2 (centres unmarked) [Example 4, 9-(3,4-dihydroxyphenyl)-3,6-diphenyl-3,4,5,6,7,9-hexahydro-1H-xanthene-1,8(2H)-dione] | 0.001 μg of sample for 1 μg of Trolox | –
2 µM | CC1(C)CC(=O)C2=C(C1)OC1=C(C(=O)CC(C)(C)C1)C2c1cc(C(C)(C)C)c(O)c(C(C)(C)C)c1 [Example 5, 9-(3,5-di-tert-butyl-4-hydroxyphenyl)-3,3,6,6-tetramethyl-3,4,5,6,7,9-hexahydro-1H-xanthene-1,8(2H)-dione] | 50 μg of sample for 1 μg of Trolox | –
6 µM | COc1cc(C2C3=C(CC(c4ccccc4)CC3=O)OC3=C2C(=O)CC(c2ccccc2)C3)ccc1O (centres unmarked) [Example 6, 9-(4-hydroxy-3-methoxyphenyl)-3,6-diphenyl-3,4,5,6,7,9-hexahydro-1H-xanthene-1,8(2H)-dione] | 2.46 μg of sample for 1 μg of Trolox | –
– | CCCCC/C=C\C/C=C\CCCCCCCC(=O)Oc1ccc(C2C3=C(CC(C)(C)CC3=O)OC3=C2C(=O)CC(C)(C)C3)cc1OC [Example 7, (9Z,12Z)-2-methoxy-4-(3,3,6,6-tetramethyl-1,8-dioxo-2,3,4,5,6,7,8,9-octahydro-1H-xanthen-9-yl)phenyl octadeca-9,12-dienoate] | 19.7 μg of sample for 1 μg of Trolox | –
37 µM | CC1(C)CC(=O)C2=C(C1)OC1=C(C(=O)CC(C)(C)C1)C2c1ccc(O)cc1 [Example 9, 9-(4-hydroxyphenyl)-3,3,6,6-tetramethyl-3,4,5,6,7,9-hexahydro-1H-xanthene-1,8(2H)-dione] | 7.39 μg of sample for 1 μg of Trolox | –
– | Cc1cc(C2C3=C(CC(C)(C)CC3=O)OC3=C2C(=O)CC(C)(C)C3)cc(C)c1O [Example 10, 9-(4-hydroxy-3,5-dimethylphenyl)-3,3,6,6-tetramethyl-3,4,5,6,7,9-hexahydro-1H-xanthene-1,8(2H)-dione] | 4.10 μg of sample for 1 μg of Trolox | –
– | COc1cc(C2C3=C(CCCC3=O)OC3=C2C(=O)CCC3)ccc1O [Example 11, 9-(4-hydroxy-3-methoxyphenyl)-3,4,5,6,7,9-hexahydro-1H-xanthene-1,8(2H)-dione] | 1.07 μg of sample for 1 μg of Trolox | –
16 µM | COc1cc(C2C3=C(CC(C(C)C)CC3=O)OC3=C2C(=O)CC(C(C)C)C3)ccc1O (centres unmarked) [Example 12, 9-(4-hydroxy-3-methoxyphenyl)-3,6-diisopropyl-3,4,5,6,7,9-hexahydro-1H-xanthene-1,8(2H)-dione] | 1.64 μg of sample for 1 μg of Trolox | –
– | COc1cc(C2C3=C(CC(c4ccc(OC)c(OC)c4)CC3=O)OC3=C2C(=O)CC(c2ccc(OC)c(OC)c2)C3)ccc1O (centres unmarked) [Example 14, 3,6-bis(3,4-dimethoxyphenyl)-9-(4-hydroxy-3-methoxyphenyl)-3,4,5,6,7,9-hexahydro-1H-xanthene-1,8(2H)-dione] | 2.27 μg of sample for 1 μg of Trolox | –
19 µM | CCOc1cc(C2C3=C(CC(C)(C)CC3=O)OC3=C2C(=O)CC(C)(C)C3)ccc1O [Example 15, 9-(3-ethoxy-4-hydroxyphenyl)-3,3,6,6-tetramethyl-3,4,5,6,7,9-hexahydro-1H-xanthene-1,8(2H)-dione] | 1.79 μg of sample for 1 μg of Trolox | –
– | COc1cc(C2C3=C(CC(C)(C)CC3=O)OC3=C2C(=O)CC(C)(C)C3)cc(Cl)c1O [Example 16, 9-(3-chloro-4-hydroxy-5-methoxyphenyl)-3,3,6,6-tetramethyl-3,4,5,6,7,9-hexahydro-1H-xanthene-1,8(2H)-dione] | 5.20 μg of sample for 1 μg of Trolox | Results activity B16-F10, percentage of activity on melanin synthesis (B16-F10 cells; 20 μM): −31% to 20 μM
– | COc1cc(C2C3=C(CC(C)(C)CC3=O)OC3=C2C(=O)CC(C)(C)C3)cc(Br)c1O [Example 17, 9-(3-bromo-4-hydroxy-5-methoxyphenyl)-3,3,6,6-tetramethyl-3,4,5,6,7,9-hexahydro-1H-xanthene-1,8(2H)-dione] | 5.18 μg of sample for 1 μg of Trolox | –
– | COc1cc(C2C3=C(CC(C)(C)CC3=O)OC3=C2C(=O)CC(C)(C)C3)cc(I)c1O [Example 18, 9-(4-hydroxy-3-iodo-5-methoxyphenyl)-3,3,6,6-tetramethyl-3,4,5,6,7,9-hexahydro-1H-xanthene-1,8(2H)-dione] | 4.66 μg of sample for 1 μg of Trolox | –
– | COc1cc(C2C3=C(CC(C)(C)CC3=O)OC3=C2C(=O)CC(C)(C)C3)cc(O)c1O [Example 19, 9-(3,4-dihydroxy-5-methoxyphenyl)-3,3,6,6-tetramethyl-3,4,5,6,7,9-hexahydro-1H-xanthene-1,8(2H)-dione] | 0.02 μg of sample for 1 μg of Trolox | Results activity B16-F10, percentage of activity on melanin synthesis (B16-F10 cells; 10 μM): −22% to 10 μM
– | CC(=O)Oc1ccc(C2C3=C(CC(c4ccccc4)CC3=O)OC3=C2C(=O)CC(c2ccccc2)C3)cc1OC(C)=O (centres unmarked) [Example 26, 4-(1,8-dioxo-3.6-diphenyl-2,3,4,5,6,7,8,9-octahydro-1H-xanthen-9-yl)-1,2-phenylene diacetate] | – | Results activity B16-F10, percentage of activity on melanin synthesis (B16-F10 cells; 20 μM): −28% to 20 μM
– | CC(=O)Oc1ccc(C2C3=C(CC(C)(C)CC3=O)OC3=C2C(=O)CC(C)(C)C3)cc1OC(C)=O [Example 27, 4-(3,3,6,6-tetramethyl-1,8-dioxo-2,3,4,5,6,7,8,9-octahydro-1H-xanthen-9-yl)-1,2-phenylene diacetate] | 0.096 μg of sample for 1 μg of Trolox | –
– | O=C1O[C@H]([C@@H](O)CO)C(O)=C1O [Vitamin C] | – | Activity (scale for interpreting the results) [1]: Very good; μg sample for 1 μg of Trolox (scale for interpreting the results) [1]: 0.1 to 3.0 μg sample for 1 μg of Trolox
